In ChEMBL document CHEMBL4483862, “Open-source discovery of chemical leads for next-generation chemoprotective antimalarials” (2018):

Tested on: Plasmodium berghei
Experiment: Luciferase/luciferin-expressing antifolate-resistant parasites were used to infect a culture of HepG2 cells that were pre-incubated with compounds. Infected hepatocytes emit light due to the luciferase reaction. Assay results are presented as the percent inhibition of light emission compared to control. […]
Type: functional
Conditions: sporozoite; for IC90: read-out: LUCIFERASE INFECTION ASSAY - IC90
[1] = read-out: LUCIFERASE INFECTION ASSAY - IC50

Compound | IC90 [µM] | IC50 [1] [µM] | other results
COc1cc(-c2nc3ccc(NC(=O)Nc4cccc(C(C)=O)c4)cn3n2)cc(OC)c1OC | 1.53 |  | IC50 (HEPG2TOX_HILL_SLOPE 3.38, HEPG2TOX_R_SQUARED 0.754, PBLUC_HILL_SLOPE 9.64, PBLUC_R_SQUARED 0.711, read-out: LUCIFERASE INFECTION ASSAY - IC50): 1.21 µM
CCn1c(-c2ccccc2)c(C(=O)COc2ccc(Cl)c(C)c2)c2ccccc21 | > 10 |  | IC50 (HEPG2TOX_HILL_SLOPE 7.06, HEPG2TOX_R_SQUARED 0.488, PBLUC_HILL_SLOPE 0.342, PBLUC_R_SQUARED 0.631, read-out: LUCIFERASE INFECTION ASSAY - IC50): 0.357 µM
Nc1nc(Sc2ncnc3ccsc23)nc2sccc12 | > 10 | 9.85 | 
Cc1cc(C(=O)NC(C)Cc2ccc(Br)cc2)on1 (stereo not given) | > 10 | > 10 | 
CC(C)c1ccc(NC(=O)Nc2ccc3nc(-c4ccccn4)nn3c2)cc1 | 4.2 |  | IC50 (HEPG2TOX_HILL_SLOPE 13, HEPG2TOX_R_SQUARED 0.696, PBLUC_HILL_SLOPE 14.3, PBLUC_R_SQUARED 0.36, read-out: LUCIFERASE INFECTION ASSAY - IC50): 3.6 µM
CNC(=O)c1ccc(S(=O)(=O)Nc2cccc(-c3nnnn3C)c2)cc1 | > 10 | > 10 | 
Cc1ccccc1NC(=O)Nc1nc(C(N)COCc2ccccc2)cs1 (stereo not given) | > 8.63 |  | IC50 (HEPG2TOX_HILL_SLOPE 7.21, HEPG2TOX_R_SQUARED 0.623, PBLUC_HILL_SLOPE 21.4, PBLUC_R_SQUARED 0.0439, read-out: LUCIFERASE INFECTION ASSAY - IC50): 7.8 µM
Clc1ccccc1Nc1cc2c(cn1)ncn2Cc1ccco1 | > 10 |  | IC50 (HEPG2TOX_HILL_SLOPE 2.43, HEPG2TOX_R_SQUARED 0.709, PBLUC_HILL_SLOPE 4.59, PBLUC_R_SQUARED 0.452, read-out: LUCIFERASE INFECTION ASSAY - IC50): 7.52 µM
Brc1ccc(-c2csc3ncnc(NCc4ccc(-n5ccnc5)nc4)c23)cc1 | > 10 |  | IC50 (HEPG2TOX_HILL_SLOPE 1.16, HEPG2TOX_R_SQUARED 0.868, read-out: LUCIFERASE INFECTION ASSAY - IC50): > 10 µM
COc1ccc(CCn2c(C)cc(C(=O)COC(=O)c3[nH]nc4ccccc34)c2C)cc1 | > 10 | > 10 | 
Cn1c(Nc2ccccc2)nc2cnc(-c3ccc4c(c3)OCO4)cc21 | > 10 | > 10 | 
COc1cc(NC(=O)c2csc(C(O)c3cccc(C(F)(F)F)c3)n2)cc(OC)c1OC (stereo not given) | > 10 | > 10 | 
O=C(Nc1ccc2c(c1)OC1(CCCC1)O2)N1CCN(c2ccc(O)cc2)CC1 | 4.23 |  | IC50 (HEPG2TOX_HILL_SLOPE 12.8, HEPG2TOX_R_SQUARED 0.476, PBLUC_HILL_SLOPE 2.26, PBLUC_R_SQUARED 0.894, read-out: LUCIFERASE INFECTION ASSAY - IC50): 1.6 µM
CCOc1ccc(N2C(=O)c3ccccc3C(C=NNc3ccc(S(=O)(=O)N(CC)CC)cc3[N+](=O)[O-])C2=O)cc1 (stereo not given) | > 10 | > 10 | 
CC(C)N(C(=O)COC(=O)c1ccccc1-c1nc2ccccc2s1)c1ccccc1 | > 10 |  | IC50 (PBLUC_HILL_SLOPE 20.1, PBLUC_R_SQUARED 0.325, read-out: LUCIFERASE INFECTION ASSAY - IC50): 9.13 µM
O=C(Nc1nc2cc(C(F)(F)F)ccc2n1Cc1ccco1)C1CCC1 | 4.08 |  | IC50 (PBLUC_HILL_SLOPE 12.7, PBLUC_R_SQUARED 0.404, read-out: LUCIFERASE INFECTION ASSAY - IC50): 3.43 µM
CN(C)S(=O)(=O)c1cccc(NC(=S)N/N=C/c2cc3c(cc2[N+](=O)[O-])OCO3)c1 | > 10 |  | IC50 (FFLUC_HILL_SLOPE 11, FFLUC_R_SQUARED 0.0812, read-out: LUCIFERASE INFECTION ASSAY - IC50): > 10 µM
CNc1ccccc1C(C)(C)c1cc(NC(=O)C2CCCC2)sc1C(=O)c1ccc(Cl)cc1 | > 10 |  | IC50 (HEPG2TOX_HILL_SLOPE 6.51, HEPG2TOX_R_SQUARED 0.0707, read-out: LUCIFERASE INFECTION ASSAY - IC50): > 10 µM
Clc1ccc(SCc2nc(N3CCN(c4ncccn4)CC3)c3c4c(sc3n2)CCC4)cc1 | > 10 | > 10 | 
COc1ccc(-c2cnc3ccc(-c4cccc(OC(F)(F)F)c4)nn23)cc1OC | 1.23 |  | IC50 (FFLUC_HILL_SLOPE 21.1, FFLUC_R_SQUARED 0.421, PBLUC_HILL_SLOPE 16.1, PBLUC_R_SQUARED 0.675, read-out: LUCIFERASE INFECTION ASSAY - IC50): 1.08 µM
Cc1ccc(Cn2nc(C)c3cc(C(=O)OCC(=O)c4cc(C)n(CC5CCCO5)c4C)sc32)cc1 (stereo not given) | > 10 | > 10 | 
Nc1ccc(NC2=C(Cl)C(=O)c3ccccc3C2=O)cc1 | 5.78 |  | IC50 (FFLUC_HILL_SLOPE 16.7, FFLUC_R_SQUARED 0.273, HEPG2TOX_HILL_SLOPE 2.85, HEPG2TOX_R_SQUARED 0.992, PBLUC_HILL_SLOPE 8.6, PBLUC_R_SQUARED 0.505, read-out: LUCIFERASE INFECTION ASSAY - IC50): 4.48 µM
FC(F)(F)c1cccc(-c2cnc3ccc(-c4cccs4)nn23)c1 | > 10 | > 10 | 

Compound | IC90 [µM] | IC50 [1] [µM] | other results
COC(=O)[C@@H](NC(=O)Nc1ccc(-c2nc3ccccc3s2)cc1)C(C)C | > 8.61 |  | IC50 (FFLUC_HILL_SLOPE 0.533, FFLUC_R_SQUARED 0.87, PBLUC_HILL_SLOPE 0.528, PBLUC_R_SQUARED 0.783, read-out: LUCIFERASE INFECTION ASSAY - IC50): 0.264 µM
O=C(Nc1cccc(SC(F)(F)C(F)(F)C(F)(F)F)c1)C1(S(=O)(=O)c2ccccc2)CC1 | > 10 | > 10 | 
O=C(CCN1CCOCC1)Nc1cc(C(F)(F)F)ccc1Cl | > 9.8 | > 9.8 | 
Cc1cc(C(=O)NC2CC2)c(C)n1-c1ccc(C(C)C)cc1 | > 10 |  | IC50 (PBLUC_HILL_SLOPE 2.98, PBLUC_R_SQUARED 0.567, read-out: LUCIFERASE INFECTION ASSAY - IC50): 6.28 µM
CCCn1c(O)nnc1SCC(=O)NC(C)C12CC3CC(CC(C3)C1)C2 (stereo not given) | > 10 | > 10 | 
CC(C)(C)NC(=O)CNC(=O)c1cc(-c2ccccc2)nc2c1cnn2Cc1ccccc1 | > 10 |  | IC50 (PBLUC_HILL_SLOPE 16.4, PBLUC_R_SQUARED 0.327, read-out: LUCIFERASE INFECTION ASSAY - IC50): 9.02 µM
O=C(NCCO)c1cccc(-c2ccc3ncc(-c4cccc(OC(F)(F)F)c4)n3n2)c1 | 9.96 |  | IC50 (PBLUC_HILL_SLOPE 3.2, PBLUC_R_SQUARED 0.416, read-out: LUCIFERASE INFECTION ASSAY - IC50): 5.01 µM
CN(c1ccccc1)S(=O)(=O)c1cccc(C(=O)Nc2ccc(-c3cn4c(n3)CCC4)cc2)c1 | > 10 | > 10 | 
O=C(Nc1cccc(C(F)(F)F)c1)n1nccc1-c1cc(-c2ccccc2)no1 | 3.32 |  | IC50 (HEPG2TOX_HILL_SLOPE 0.0838, HEPG2TOX_R_SQUARED 0.0659, PBLUC_HILL_SLOPE 13.2, PBLUC_R_SQUARED 0.221, read-out: LUCIFERASE INFECTION ASSAY - IC50): 2.81 µM
O=C(CCC(=O)c1ccc2c(c1)OCCO2)OCn1nnc2ccccc2c1=O | > 10 | > 10 | 
Cc1ccc(NC(=O)c2cccc(NS(=O)(=O)c3ccc(C)c(F)c3)c2)nc1 | > 10 | > 10 | 
CN(C)c1ccc(C(=O)N2CCc3nc(NCc4cccc(Oc5ccccc5)c4)ncc3C2)cc1 | > 6.88 |  | IC50 (HEPG2TOX_HILL_SLOPE 9.14, HEPG2TOX_R_SQUARED 0.261, read-out: LUCIFERASE INFECTION ASSAY - IC50): > 6.88 µM
Cc1ccc(-c2nnc(NC(=O)c3cccc(S(=O)(=O)N4CCc5ccccc54)c3)[nH]2)cc1 | > 10 | 8.49 | 
CN(C1CCCCC1)S(=O)(=O)c1cccc(C(=O)Nc2ccc(S(=O)(=O)NCc3ccco3)cc2)c1 | 1.72 |  | IC50 (HEPG2TOX_HILL_SLOPE 1.16, HEPG2TOX_R_SQUARED 0.836, PBLUC_HILL_SLOPE 2.1, PBLUC_R_SQUARED 0.409, read-out: LUCIFERASE INFECTION ASSAY - IC50): 0.606 µM
CN(C)CCNCc1ccc(OC2CCCC2)cc1 | > 11 | > 11 | 
CN(Cc1ccccc1)S(=O)(=O)N1CCC(C(O)(c2ccccc2)c2ccccc2)CC1 | 9.51 |  | IC50 (PBLUC_HILL_SLOPE 2.67, PBLUC_R_SQUARED 0.571, read-out: LUCIFERASE INFECTION ASSAY - IC50): 4.18 µM
c1ccc(-c2cc3c(Nc4ccccn4)nccc3[nH]2)cc1 | > 10 | > 10 | 
Cn1nc(-c2ccccc2)c(/C=N/O)c1Sc1ccc(C(C)(C)C)cc1 | > 9.03 |  | IC50 (FFLUC_HILL_SLOPE 15.8, FFLUC_R_SQUARED 0.096, HEPG2TOX_HILL_SLOPE 2.21, HEPG2TOX_R_SQUARED 0.952, PBLUC_HILL_SLOPE 13.8, PBLUC_R_SQUARED 0.121, read-out: LUCIFERASE INFECTION ASSAY - IC50): 8.79 µM
Cc1ccc(C)c(S(=O)(=O)CCN2C(=O)C(=O)N(Cc3cccs3)C2=O)c1 | > 10 | > 10 | 
O=C(NCCOc1ccc(Cl)cc1)c1ccc(=O)n(Cc2ccccc2)n1 | > 10 | > 10 | 
OCc1cccc(-c2cnc3ccc(-c4ccccc4)nn23)c1 | 7.66 |  | IC50 (HEPG2TOX_HILL_SLOPE 3.47, HEPG2TOX_R_SQUARED 0.7, PBLUC_HILL_SLOPE 5.19, PBLUC_R_SQUARED 0.0412, read-out: LUCIFERASE INFECTION ASSAY - IC50): 5.02 µM
Cc1cc(C)nc(-n2nc(Nc3ccccc3)cc2Nc2ccccc2)n1 | > 10 |  | IC50 (FFLUC_HILL_SLOPE 18.6, FFLUC_R_SQUARED 0.489, PBLUC_HILL_SLOPE 15, PBLUC_R_SQUARED 0.577, read-out: LUCIFERASE INFECTION ASSAY - IC50): 9.07 µM
